Reference: patent publication US5219741A, “Method of making L-proline using an N-acyl-L-protine acylase” (priority 1990, dated 1993)
Values joined by “and” are separate entries in the source; they are usually repeats but may differ in a detail not shown here. Equal entries are not always repeated. “Also recorded” adds a separate entry of the source. Structures can show the parent of a compound that is named as a salt. Where two headings read alike, the source gives them in different places. Where a SMILES comes first, the peptide text is derived from it. The star is where a group is joined. Cbz = O=C(OCc1ccccc1)*

Key:
N-acyl-L-proline acylase [1] = assay type: biochemical, Comamonas testosteroni DSM 5416
Method: The enzymatic reaction was interrupted by pipetting 50 μl of the enzyme sample into 1.25 ml 100% acetic acid. Subsequently, 0.45 ml 0.1M tris-HCl buffer pH 7.0 and 1.25 ml ninhydrin reagent (3 g ninhydrin dissolved by heating in a mixture of 60 ml 100% acetic acid and 40 ml 6M phosphoric acid) were added. The ninhydrin reagent was freshly prepared daily. The test tubes were loosely closed with screw-on caps, incubated 30 minutes at 100° C. and subsequently cooled down in an ice bath.
The L-proline, liberated by the enzymatic hydrolysis, forms a red dye with ninhydrin at 100° C. The absorption of the red dye was measured in a spectrophotometer at 480 nm relative to a control batch without crude extract (=substrate blank). The concentration of the L-proline produced was determined using a straight calibration line with L-proline in a range of 5 to 100 nmoles per 50 μl specimen. The enzyme activity was indicated in international units; thus, one unit (U) corresponded to an amount of 1 μmole L-proline produced per minute.
The influence of various chemical agents as well as metal cations and anions on the reaction speed of the hydrolytic splitting of N-acetyl-L-proline was determined at 30° C. in a reaction batch with the following composition: […]
The enzyme was pre-incubated for 10 minutes at 30° C. with the compound before the addition of substrate to start the reaction.
The enzyme was pre-incubated for 10 minutes at 30° C. with the agent before the substrate was added to start the reaction.
The enzyme was pre-incubated 10 minutes at 30° C. with the agent before the substrate was added to start the reaction. The concentration of the anions was 10 mM in each instance.

N-acyl-L-proline acylase [2] = assay: Substrate specificity: hydrolysis of N-acyl amino acids and proline derivatives; assay type: biochemical, Comamonas testosteroni DSM 5416; details: for Relative Activity (%): proline derivatives; for Relative Activity (%) / Rel. activity (%): N-acetyl-L-proline = 100%
Method: The activity of acylase was determined with various N-acetyl-L-amino acids and N-chloroacetyl-L-amino acids in a reaction batch with the following composition:
The reaction temperature was 30° C. and the incubation time 15 minutes to 24 hours. 0.2 ml samples of the reaction batch in each instance were mixed at different times with 0.2 ml 10% (w/v) trichloroacetic acid and the denatured protein centrifuged off for 10 minutes at 11,000 rpms in a table centrifuge. The supernatant was diluted with a 0.1M Na citrate buffer pH 2.2 with 25% (v/v) 2.2-thiodiethanol and 0.1% (v/v) phenol 1:5 and 1:50 respectively. The amino acids released were quantitatively detected by an amino-acid analyzer LC 5001 of the firm Biotronic, Maintal, Federal Republic of Germany. In Table 16, the substrates marked with * and the corresponding products were quantified by means of HPLC.
The activity of the acylase was determined with various proline derivatives as under a).

[3] = chemical agent 1 mM, 10 min pre-incubation at 30° C., no agent = 100
[4] = chemical agent 10 mM, 10 min pre-incubation at 30° C., no agent = 100
[5] = 20 mM substrate 1.0 ml in 2.0 ml batch, 30° C., pH 7.0, amino-acid analyzer
[6] = substrate concentration 50 mM, quantified by HPLC

O=C([O-])c1cc[c]([Hg][Cl])cc1 [4-chloromercuribenzoate]
Activity (%) (N-acyl-L-proline acylase [1]; [3]): 85%
Activity (%) (N-acyl-L-proline acylase [1]; [4]): 48%
Influence on the acylase activity (in words) (N-acyl-L-proline acylase [1]; native enzyme): inhibiting action; also recorded: significantly inhibit

NC(=O)[C@@H]1CCCN1C(=O)OCc1ccccc1 [Z--L--Pro--NH2]
Relative Activity (%) (N-acyl-L-proline acylase [2]; 30° C., pH 7.0): 0%

CC[C@H](C)[C@H](NC(=O)CCl)C(=O)O [ClAc--L--Ile]
Rel. activity (%) (N-acyl-L-proline acylase [2]; [5]): 0.5%

O=C(O)[C@@H]1SCCN1C(=O)CCl [N-chloroacetyl-L-thiazolidine-2-carboxylic acid]
Hydrolysis by the acylase (in words) (N-acyl-L-proline acylase [2]): hydrolyzes

O=N[O-].[Na+] [NaNO2]
Activity (%) (N-acyl-L-proline acylase [1]): 71%
Influence on the acylase activity (in words) (N-acyl-L-proline acylase [1]): slightly inhibited

[Cl-].[Na+] [NaCl]
Activity (%) (N-acyl-L-proline acylase [1]): 99%

NC(=O)[C@@H]1CCCN1 [H--L--Pro--NH2]
Relative Activity (%) (N-acyl-L-proline acylase [2]; 30° C., pH 7.0): 0%

O=S(=O)(F)Cc1ccccc1 [PMSF]
Activity (%) (N-acyl-L-proline acylase [1]; chemical agent 0.1 mM, 10 min pre-incubation at 30° C.): 104%
Activity (%) (N-acyl-L-proline acylase [1]; [3]): 130%

CC(=O)N1CC(O)C[C@H]1C(=O)O (stereo partly drawn) [N-acetyl-L-4-hydroxyproline]
Hydrolysis by the acylase (in words) (N-acyl-L-proline acylase [2]): hydrolyzes
Relative Activity (%) (N-acyl-L-proline acylase [2]; 30° C., pH 7.0): 10%

CCCCCC(=O)N1CCC[C@H]1C(=O)O [N-caproyl-L-proline]
Hydrolysis by the acylase (in words) (N-acyl-L-proline acylase [2]): hydrolyzes
Relative Activity (%) (N-acyl-L-proline acylase [2]; 30° C., pH 7.0): 9%

CC(C)(C)OC(=O)N1CCC[C@H]1C(=O)O [Boc--L--Pro--OH]
Relative Activity (%) (N-acyl-L-proline acylase [2]; 30° C., pH 7.0): 0%

O=CN1CCC[C@H]1C(=O)O [N-formyl-L-proline]
Hydrolysis by the acylase (in words) (N-acyl-L-proline acylase [2]): hydrolyzes
Relative Activity (%) (N-acyl-L-proline acylase [2]; 30° C., pH 7.0): 18%

NNC(N)=O [Semicarbazide]
Activity (%) (N-acyl-L-proline acylase [1]; [3]): 109%
Activity (%) (N-acyl-L-proline acylase [1]; [4]): 95%

O=C(O)[C@@H]1CCCN1C(=O)OCc1ccccc1 [Z--L--Pro--OH]
Relative Activity (%) (N-acyl-L-proline acylase [2]; 30° C., pH 7.0): 0%

O=C(O)CC(O)(CC(=O)O)C(=O)O [Na citrate]
Activity (%) (N-acyl-L-proline acylase [1]; [3]): 102%
Activity (%) (N-acyl-L-proline acylase [1]; [4]): 102%

O=P([O-])(O)O.[Na+] [NaH2 PO4]
Inhibiting mechanism (N-acyl-L-proline acylase [1]): non-competitive
Activity (%) (N-acyl-L-proline acylase [1]; anion 10 mM, no agent = 100): 6%
Influence on the acylase activity (in words) (N-acyl-L-proline acylase [1]; native enzyme, listed as PO4^3-): inhibiting action
Influence on the acylase activity (in words) (N-acyl-L-proline acylase [1]; native enzyme, listed as Phosphate): inhibited
Influence on the acylase activity (in words) (N-acyl-L-proline acylase [1]; native enzyme, listed as phosphate): sharply inhibited

O=C(O)CI [Iodoacetate]
Activity (%) (N-acyl-L-proline acylase [1]): 97% and 77%

O=C(O)[C@@H]1CSCN1C(=O)CCl [N-chloroacetyl-L-thiazolidine-4-carboxylic acid]
Hydrolysis by the acylase (in words) (N-acyl-L-proline acylase [2]): hydrolyzes; also recorded: hydrolyzed especially well
Rel. activity (%) (N-acyl-L-proline acylase [2]; [5]): 462%

CCCCC(=O)N1CCC[C@H]1C(=O)O [N-valeryl-L-proline]
Hydrolysis by the acylase (in words) (N-acyl-L-proline acylase [2]): hydrolyzes
Relative Activity (%) (N-acyl-L-proline acylase [2]; 30° C., pH 7.0): 15%

O=C(O)CN(CCN(CC(=O)O)CC(=O)O)CC(=O)O [EDTA]
Activity (%) (N-acyl-L-proline acylase [1]): 101% and 99%

O[C@H](CS)[C@H](O)CS (racemic) [Dithiothreitol]
Activity (%) (N-acyl-L-proline acylase [1]; [3]): 129%
Activity (%) (N-acyl-L-proline acylase [1]; [4]): 48%

O=[N+]([O-])[O-].[K+] [KNO3]
Activity (%) (N-acyl-L-proline acylase [1]; anion 10 mM, no agent = 100): 96%

OCCS [2-mercaptoethanol]
Activity (%) (N-acyl-L-proline acylase [1]; chemical agent 14 mM, 10 min pre-incubation at 30° C.): 14%
Influence on the acylase activity (in words) (N-acyl-L-proline acylase [1]; native enzyme): inhibiting action; also recorded: significantly inhibit

O=C(O)[C@@H]1Cc2ccccc2N1C(=O)CCl [ClAc--L-indolin-2-carboxylic acid]
Rel. activity (%) (N-acyl-L-proline acylase [2]; quantified by HPLC): 0%

O=C([O-])c1cc[c]([Hg][OH])cc1 [4-hydroxymercuribenzoate]
Activity (%) (N-acyl-L-proline acylase [1]; [3]): 88%
Activity (%) (N-acyl-L-proline acylase [1]; [4]): 41%
Influence on the acylase activity (in words) (N-acyl-L-proline acylase [1]; native enzyme): inhibiting action; also recorded: significantly inhibit

CC(=O)N1CC[C@H]1C(=O)O [Ac--L-azetidine-2-carboxylic acid]
Rel. activity (%) (N-acyl-L-proline acylase [2]; quantified by HPLC): 0%

O=C(CCl)NC1(C(=O)O)CCCCC1 [ClAc--D,L-1-aminocyclohexanoic acid]
Rel. activity (%) (N-acyl-L-proline acylase [2]; [5]): 0%

c1ccc(-c2ccccn2)nc1 [2,2-bipyridine]
Activity (%) (N-acyl-L-proline acylase [1]; [3]): 102%
Activity (%) (N-acyl-L-proline acylase [1]; [4]): 66%

NC(=O)CI [Iodoacetamide]
Activity (%) (N-acyl-L-proline acylase [1]; [3]): 104%
Activity (%) (N-acyl-L-proline acylase [1]; [4]): 101%

O=C(O)C1SCCN1C(=O)CCl (racemic) [ClAc--D,L-thiazolidine-2-carboxylic acid, N-chloroacetyl-DL-thiazolidine-2-carboxylic acid]
Hydrolysis by the acylase (in words) (N-acyl-L-proline acylase [2]): hydrolyzed especially well
Rel. activity (%) (N-acyl-L-proline acylase [2]; [6]): 202%

O=C(O)CNC(=O)[C@@H]1CCCN1 [H--L--Pro--Gly--OH] (H-Pro-Gly-OH)
Relative Activity (%) (N-acyl-L-proline acylase [2]; 30° C., pH 7.0): 0%

C[C@H](NC(=O)[C@@H]1CCCN1C(=O)OCc1ccccc1)C(=O)O [Z--L--Pro--L--Ala--OH] (Cbz-Pro-Ala-OH)
Relative Activity (%) (N-acyl-L-proline acylase [2]; 30° C., pH 7.0): 0%

CCC(=O)N1CCC[C@H]1C(=O)O [N-propionyl-L-proline]
Hydrolysis by the acylase (in words) (N-acyl-L-proline acylase [2]): hydrolyzes
Relative Activity (%) (N-acyl-L-proline acylase [2]; 30° C., pH 7.0): 29%

CCCC(=O)N1CCC[C@H]1C(=O)O [N-butyryl-L-proline]
Hydrolysis by the acylase (in words) (N-acyl-L-proline acylase [2]): hydrolyzes
Relative Activity (%) (N-acyl-L-proline acylase [2]; 30° C., pH 7.0): 14%

N[C@@H](CCC(=O)N[C@@H](CS)C(=O)NCC(=O)O)C(=O)O [Glutathione]
Activity (%) (N-acyl-L-proline acylase [1]): 116% and 135%

C[C@H](N)C(=O)N1CCC[C@H]1C(=O)O [H--L Ala--L--Pro--OH] (H-Ala-Pro-OH)
Relative Activity (%) (N-acyl-L-proline acylase [2]; 30° C., pH 7.0): 0%

CC(=O)N[C@@H](CS)C(=O)O [Ac--L--Cys]
Rel. activity (%) (N-acyl-L-proline acylase [2]; [5]): 0%

O=C(O)[C@@H]1CCCN1C(=O)CCl [N-chloroacetyl-L-proline]
Hydrolysis by the acylase (in words) (N-acyl-L-proline acylase [2]): hydrolyzes; also recorded: hydrolyzed especially well
Hydrolysis rate, times more rapid than N-acetyl-L-proline (N-acyl-L-proline acylase [2]): about 3.6 times
Rel. activity (%) (N-acyl-L-proline acylase [2]; [5]): 362%
Relative Activity (%) (N-acyl-L-proline acylase [2]; 30° C., pH 7.0): 362%

COC(=O)[C@@H]1CCCN1C(C)=O [N-acetyl-L-proline methyl ester]
Hydrolysis by the acylase (in words) (N-acyl-L-proline acylase [2]): not hydrolyzed
Relative Activity (%) (N-acyl-L-proline acylase [2]; 30° C., pH 7.0): 0%

O=C(NCC(=O)N1CCC[C@H]1C(=O)O)OCc1ccccc1 [N-benzyloxycarbonyl-glycyl-L-proline] (Cbz-Gly-Pro-OH)
Hydrolysis by the acylase (in words) (N-acyl-L-proline acylase [2]): hydrolyzes
Relative Activity (%) (N-acyl-L-proline acylase [2]; 30° C., pH 7.0): 11%

O=C(O)[C@@H]1CCCCN1C(=O)CCl [N-chloroacetyl-L-pipecolic acid]
Hydrolysis by the acylase (in words) (N-acyl-L-proline acylase [2]): hydrolyzes

O=C(O)O [Na2 CO3]
Activity (%) (N-acyl-L-proline acylase [1]): 75%
Influence on the acylase activity (in words) (N-acyl-L-proline acylase [1]): slightly inhibited

O=S(=O)([O-])[O-].[Na+].[Na+] [Na2 SO4]
Activity (%) (N-acyl-L-proline acylase [1]; anion 10 mM, no agent = 100): 96%

CC(=O)N1CCC[C@H]1C(N)=O [N-acetyl-L-prolineamide]
Hydrolysis by the acylase (in words) (N-acyl-L-proline acylase [2]): not hydrolyzed
Relative Activity (%) (N-acyl-L-proline acylase [2]; 30° C., pH 7.0): 0%

NCC(=O)N1CCC[C@H]1C(=O)O [glycyl-L-proline] (H-Gly-Pro-OH)
Hydrolysis by the acylase (in words) (N-acyl-L-proline acylase [2]): hydrolyzes
Relative Activity (%) (N-acyl-L-proline acylase [2]; 30° C., pH 7.0): 4%

CC(=O)N[C@H](C(=O)O)C(C)C [Ac--L--Val]
Rel. activity (%) (N-acyl-L-proline acylase [2]; [5]): 0.2%

CC(=O)N[C@@H](Cc1ccc(O)cc1)C(=O)O [Ac--L--Tyr]
Rel. activity (%) (N-acyl-L-proline acylase [2]; [5]): 0%

CC(=O)N[C@@H](C)C(=O)N1CCC[C@H]1C(=O)O [Ac--L--Ala--L--Pro--OH] (Ac-Ala-Pro-OH)
Relative Activity (%) (N-acyl-L-proline acylase [2]; 30° C., pH 7.0): 0%

O=C(O)C1CCCCN1C(=O)CCl (racemic) [ClAc--D,L-pipecolic acid, N-chloroacetyl-D,L-pipecolic acid]
Hydrolysis by the acylase (in words) (N-acyl-L-proline acylase [2]): reacted at a distinctly lower speed
Rel. activity (%) (N-acyl-L-proline acylase [2]; [6]): 16%

O=C(O)[C@H]1CCCN1C(=O)OCc1ccccc1 [Z--D--Pro--OH]
Relative Activity (%) (N-acyl-L-proline acylase [2]; 30° C., pH 7.0): 0%

CC(=O)NC(CO)C(=O)O (racemic) [Ac--D,L--Ser]
Rel. activity (%) (N-acyl-L-proline acylase [2]; [5]): 0.2%
